Measured values taken from patent publication US11944704B2, “Coenzyme Q10 aerosol” (UNM Rainforest Innovations, priority 2015, dated 2024).

Test: Maximum solubility of CoQ10 in coconut oil
Format: physicochemical
Conditions: in neobee (coconut oil)

maximum solubility: 6%
Compound: COC1=C(OC)C(=O)C(C/C=C(\C)CC/C=C(\C)CC/C=C(\C)CC/C=C(\C)CC/C=C(\C)CC/C=C(\C)CC/C=C(\C)CC/C=C(\C)CC/C=C(\C)CCC=C(C)C)=C(C)C1=O [Emulsion Q10, 2-[(2E,6E,10E,14E,18E,22E,26E,30E,34E)-3,7,11,15,19,23,27,31,35,39-Decamethyltetraconta-2,6,10,14,18,22,26,30,34,38-decaenyl]-5,6-dimethoxy-3-methylcyclohexa-2,5-diene-1,4-dione]
